The values that follow are results of earlier work, collected in the CATMoS acute toxicity set (Mansouri et al. 2021).

This series can be described thus: rat acute oral toxicity. To be noted: in vivo. From the text:
[…]The data set underlying the modeling effort for this project was initially compiled by NICEATM and U.S. EPA’s CCTE. Briefly, LD50 data were collected from rat acute oral systemic toxicity tests, including limit tests, ranges/confidence intervals, and discrete LD50 values. The full data set included 21,200 LD50 entries for 15,688 substances. […] Data were reviewed to ensure that LD50 values with obvious errors in the extracted data such as unit conversion errors (e.g., comma and decimal separator misplacements) were either fixed or removed. After this review, 16,209 LD50 values remained. Many of the chemicals represented had multiple LD50 entries, requiring that a single representative value per Chemical Abstracts Service Registry Number (CASRN) identifier be defined to facilitate modeling efforts. Based on ATWG feedback and to define the representative LD50 as a protective value while accounting for the distribution across multiple LD50s, the median of the lowest quartile was computed using only discrete LD50 values (omitting limit test data and range and confidence interval data). A detailed summary of the data compilation is available online on the NICEATM webpage dedicated to the collaborative modeling project (NTP 2020).
[…][…] For categorical designations, limit test and range/confidence interval LD50 data were integrated wherever possible. As such, the number of chemicals with end point values/calls varies across the modeling end points (Table 3) based on whether chemicals had representative LD50 values and/or other data. If a chemical had both, the representative value was used to determine categorical calls rather than limit test data. Some data were useable only for certain end points and categories depending on the thresholds. For example, ranges that spanned multiple hazard categories were considered only for the binary (very toxic/nontoxic) end points and omitted from rendering a determination for hazard category assignment.
[…]The final data set comprising 11,992 chemicals was split into training and evaluation sets […], respectively. This process was performed semirandomly by ordering chemicals based on the five end points (categorical and continuous LD50 values) and partitioning every fourth record into the evaluation set accordingly. This approach was taken to ensure an equivalent distribution of the LD50 values and the different hazard categories between the training and the evaluation sets without supervised sampling of the chemicals based on structures (Figure 1A). The sources of the chemical structures were also kept equivalent between the two sets, with chemical structures obtained from DSSTox, being the highest quality, representing over 75% of each set (Figure 1B).
`COc1cc2ccc(=O)oc2cc1OC`: the 50% lethal dose (LD50) is 292 mg/kg.

With `CNC(=O)Oc1cccc2c1OC(C)(C)CC2`, the LD50 is 3 mg/kg.

Take `COP(=S)(Oc1ccc([N+](=O)[O-])cc1)Oc1ccc([N+](=O)[O-])cc1`: the 50% lethal dose (LD50) was 312 mg/kg.

As to `Cc1ccc(OP(=O)(Oc2ccc(C)cc2)Oc2ccc(C)cc2)cc1`, the 50% lethal dose (LD50) is 12800 mg/kg.

For the compound `COc1nc(C)nc(NC(=O)NS(=O)(=O)c2ccccc2Cl)n1`, the median lethal dose (LD50) is 9370 mg/kg.

For `CCC(=O)c1ccc2c(c1)N(CC(C)N(C)C)c1ccccc1S2` (centres undefined), the median lethal dose (LD50) was 500 mg/kg.

As for `CC1=CCC2CC1C2(C)C` (centres undefined), the LD50 is 3700 mg/kg.

`N#CCN(CC#N)N=O`: the LD50 is 163 mg/kg.

Take `Nc1ncnc2[nH]cnc12`: the 50% lethal dose (LD50) is 227 mg/kg.

With `C=CC(C)=CCCC(C)(C)O`, the LD50 is 1700 mg/kg.

Turning to `O=C1CCC(=O)N1c1cc(Cl)cc(Cl)c1`, the median lethal dose (LD50) is 890 mg/kg.

For `O=C1CCc2cc(C(=O)CCCN3CCN(c4ccccc4Cl)CC3)ccc2N1`, the LD50 is 500 mg/kg.

With `Cc1ccc(=O)n(-c2ccccc2)c1`, the median lethal dose (LD50) is 1300 mg/kg.

`CCOP(=O)(OCC)SCCS(=O)(=O)CC`: the LD50 is 1.9 mg/kg.

With `C=C(C)C(=O)Nc1ccc(Cl)c(Cl)c1`, the median lethal dose (LD50) is 1800 mg/kg.

With `CO[Si](CCCCCCCCCC[Si](OC)(OC)OC)(OC)OC`, the median lethal dose (LD50) was 2200 mg/kg.

On to `FC(F)(F)CO[C@@H]1CC[C@@](Cn2cncn2)(c2ccc(Cl)cc2Cl)O1`, for which the LD50 was 450 mg/kg.

In the case of `O=C1NCCN1/N=C/c1ccc([N+](=O)[O-])o1`, the 50% lethal dose (LD50) is 1680 mg/kg.

`CC(=O)OCCC(C)C`: the LD50 is 16600 mg/kg.

Take `C=C(C)C(=O)OCCC[Si](OC)(OC)OC`: the median lethal dose (LD50) is 23500 mg/kg.

Regarding `CCOC(=O)CC(=O)CCl`, the 50% lethal dose (LD50) is 200 mg/kg.

`Cc1ccc(-c2nc3n(c2C=NNC(=O)CN(C)C)CCS3)cc1`: the LD50 is 800 mg/kg.

As for `CCC(=O)OC1(c2ccccc2)CCN(C)CC1CC` (centres undefined), the LD50 is 175 mg/kg.

As for `CCCOC(=O)C1COc2ccccc2O1` (centres undefined), the 50% lethal dose (LD50) was 7450 mg/kg.

In the case of `Fc1ccc2nc(C(F)(F)F)[nH]c2c1`, the LD50 is 16.6 mg/kg.

`O=c1ccc(O)n[nH]1`: the LD50 is 3900 mg/kg.

`CNC(C)C#N` (centres undefined): the LD50 is 48 mg/kg.

On to `CC(C)(C)c1cc(O)ccc1O`, for which the LD50 was 700 mg/kg.

Consider `CCN(CC)C(C)C(=O)c1ccc(NS(C)(=O)=O)cc1` (centres undefined), for which the LD50 was 2350 mg/kg.

Take `COc1ccc2[nH]c(S(=O)Cc3ncc(C)c(OC)c3C)nc2c1` (centres undefined): the LD50 is 2210 mg/kg.

Consider `CCCC[N+]1(C)[C@@H]2C[C@@H](OC(=O)[C@H](CO)c3ccccc3)C[C@H]1[C@@H]1O[C@@H]12` (some centres undefined), for which the LD50 is 1040 mg/kg.

Regarding `CN1C(=O)CCS(=O)(=O)C1c1ccc(Cl)c(Cl)c1` (centres undefined), the LD50 was 1050 mg/kg.

For the compound `N#C[SeH]`, the median lethal dose (LD50) was 10 mg/kg.

As for `Cc1cccc(C(=O)Cl)c1`, the 50% lethal dose (LD50) was 3440 mg/kg.

In the case of `CC(C)CCCC(C)NN` (centres undefined), the LD50 was 108 mg/kg.

In the case of `CCOC(=O)CCCCCCCCC(=O)OCC`, the LD50 was 14500 mg/kg.

On to `Cc1ccc2ccc(=O)oc2c1`, for which the median lethal dose (LD50) was 3800 mg/kg.

On to `Nc1c2c(nc3ccccc13)CCCC2`, for which the LD50 is 70 mg/kg.

For the compound `Cc1c(-c2c(C)c(N)c3c(C(C)C)c(O)c(O)c(C=O)c3c2O)c(O)c2c(C=O)c(O)c(O)c(C(C)C)c2c1N`, the LD50 is 3270 mg/kg.

In the case of `CCOP(=O)(OCC)SCC`, the LD50 is 27 mg/kg.

In the case of `C=CCSC(C)C1(CC(C)C)C(=O)N=C(O)NC1=O` (centres undefined), the LD50 is 417 mg/kg.

For `CC(C)(C)CC1(C)CO1` (centres undefined), the LD50 was 4920 mg/kg.

With `CCC1(c2cccc(O)c2)CCCCN(C)C1` (centres undefined), the LD50 was 1260 mg/kg.

For `CC(C=CC=C(C)C(=O)OC1OC(COC2OC(CO)C(O)C(O)C2O)C(O)C(O)C1O)=CC=CC=C(C)C=CC=C(C)C(=O)OC1OC(COC2OC(CO)C(O)C(O)C2O)C(O)C(O)C1O` (centres undefined), the LD50 was 3160 mg/kg.

Regarding `CCCCCCCCCCCCCC[n+]1ccc(C)cc1`, the LD50 was 250 mg/kg.

For `O=NN(CCCl)C(O)=NC1C[C@H]2CC[C@@H]1C2` (some centres undefined), the LD50 was 83 mg/kg.

With `CC(O)COC[C@H]1O[C@@H](O)[C@H](OCC(C)O)[C@@H](OCC(C)O)[C@@H]1O` (some centres undefined), the LD50 was 10200 mg/kg.

Turning to `O=C1OCCN1/N=C/c1ccc([N+](=O)[O-])o1`, the LD50 is 2340 mg/kg.

Turning to `CC(=O)Nc1cc(Cl)c([N+](=O)[O-])cc1Cl`, the LD50 is 2830 mg/kg.
